We go through two compounds from patent US20060159631A1, “Compositions and methods for preventing dental stain” (SMITHKLINE BEECHAM CORPORATION, priority 2003, published 2006).

This experiment is described as follows: Coffee stain challenge on saliva pellicle-treated HAP discs, rated by visual inspection. As to conditions: subjective index of 1 to 10 (1 representing greatest stain), coffee 24 hours, None = 2.0. How it is done:
In a series of experiments, HAP discs were first treated with saliva to generate an artificial pellicle. […] Following a second rinse, the active-treated discs were immersed in a concentrated solution of coffee for a period of 24 hours in order to simulate a dietary stain challenge. After rinsing to remove excess coffee solution, the discs were dried and rated for stain by visual inspection. Using a subjective index of 1 to 10 (1 representing greatest stain), stain intensity is tabluated below.

In the case of “pegulated lauryl phosphate ether [DLP-10]”, the “Stain Intensity” value reads like this: (2% (w/w) active) 3.5; (5% (w/w) active) 4.0.
Consider `O=P(O)(O)OP(=O)(O)OP(=O)(O)O` [STP], for which the “Stain Intensity” value (10% (w/w) active) is reported as 5.5.
